Test results as given in ChEMBL document CHEMBL5376027, “Discovery of 5-trifluoromethyl-2-aminopyrimidine derivatives as potent dual inhibitors of FLT3 and CHK1” (RSC Med Chem, 2024).
Activity calls are given as the source filed them. No cut-off for these calls is given here.

Legend:
[1] = molecular target: hERG (KCNH2) (Homo sapiens, UniProt Q12809); test: Inhibition of hERG expressed in HEK293 cells at 10 uM incubated by patch clamp assay relative to control; assay type: toxicity, cell-based; conditions: HEK293 cells that express hERG
[2] = molecular target: T1, Interleukin-1 receptor-associated kinase 4 (Homo sapiens, UniProt Q9NWZ3); test: Inhibition of IRAK4 (unknown origin) using peptide substrate incubated for 1 hrs in presence of ATP by fluorescence microplate reader
T1 sequence (Q9NWZ3 whole entry): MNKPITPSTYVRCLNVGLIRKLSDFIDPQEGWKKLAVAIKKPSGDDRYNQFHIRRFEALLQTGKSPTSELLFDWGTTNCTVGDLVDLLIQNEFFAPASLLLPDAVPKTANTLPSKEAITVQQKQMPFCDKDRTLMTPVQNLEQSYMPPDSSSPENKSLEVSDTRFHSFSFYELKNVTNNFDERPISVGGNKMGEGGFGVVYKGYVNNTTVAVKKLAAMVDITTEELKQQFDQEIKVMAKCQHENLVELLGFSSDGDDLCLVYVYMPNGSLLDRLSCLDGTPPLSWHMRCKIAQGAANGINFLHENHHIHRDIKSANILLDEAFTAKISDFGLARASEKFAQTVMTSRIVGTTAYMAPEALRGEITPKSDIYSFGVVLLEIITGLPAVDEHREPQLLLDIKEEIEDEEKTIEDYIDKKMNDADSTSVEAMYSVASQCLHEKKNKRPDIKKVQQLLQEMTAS

[3] = molecular target: Ribosomal protein S6 kinase; test: Inhibition of p70S6K (unknown origin) using peptide substrate incubated for 1 hrs in presence of ATP by fluorescence microplate reader; assay type: protein assay, Homo sapiens
[4] = molecular target: Cyclin-dependent kinase 2 (Homo sapiens, UniProt P24941); test: Inhibition of CDK2 (unknown origin) incubated for 1 hrs by fluorescence microplate reader
[5] = molecular target: T2, Aurora kinase A (Homo sapiens, UniProt O14965); test: Inhibition of Aurora A (unknown origin) expressed in Escherichia coli using peptide substrate incubated for 1 hrs in presence of ATP by fluorescence microplate reader
T2 sequence (O14965 whole entry): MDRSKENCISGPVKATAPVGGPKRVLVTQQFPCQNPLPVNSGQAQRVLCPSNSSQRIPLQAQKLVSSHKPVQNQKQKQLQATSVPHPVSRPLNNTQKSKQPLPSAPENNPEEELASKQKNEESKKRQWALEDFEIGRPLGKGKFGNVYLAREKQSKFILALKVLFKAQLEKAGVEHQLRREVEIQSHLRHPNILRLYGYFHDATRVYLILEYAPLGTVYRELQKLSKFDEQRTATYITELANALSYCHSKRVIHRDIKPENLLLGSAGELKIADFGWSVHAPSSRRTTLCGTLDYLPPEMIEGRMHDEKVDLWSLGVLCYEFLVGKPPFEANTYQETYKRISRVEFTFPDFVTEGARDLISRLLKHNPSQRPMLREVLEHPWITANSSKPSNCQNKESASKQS

[6] = molecular target: T3, Tyrosine-protein kinase JAK3 (Homo sapiens, UniProt P52333); test: Inhibition of JAK3 (unknown origin) using peptide substrate incubated for 1 hrs in presence of ATP by fluorescence microplate reader
T3 sequence (P52333 whole entry): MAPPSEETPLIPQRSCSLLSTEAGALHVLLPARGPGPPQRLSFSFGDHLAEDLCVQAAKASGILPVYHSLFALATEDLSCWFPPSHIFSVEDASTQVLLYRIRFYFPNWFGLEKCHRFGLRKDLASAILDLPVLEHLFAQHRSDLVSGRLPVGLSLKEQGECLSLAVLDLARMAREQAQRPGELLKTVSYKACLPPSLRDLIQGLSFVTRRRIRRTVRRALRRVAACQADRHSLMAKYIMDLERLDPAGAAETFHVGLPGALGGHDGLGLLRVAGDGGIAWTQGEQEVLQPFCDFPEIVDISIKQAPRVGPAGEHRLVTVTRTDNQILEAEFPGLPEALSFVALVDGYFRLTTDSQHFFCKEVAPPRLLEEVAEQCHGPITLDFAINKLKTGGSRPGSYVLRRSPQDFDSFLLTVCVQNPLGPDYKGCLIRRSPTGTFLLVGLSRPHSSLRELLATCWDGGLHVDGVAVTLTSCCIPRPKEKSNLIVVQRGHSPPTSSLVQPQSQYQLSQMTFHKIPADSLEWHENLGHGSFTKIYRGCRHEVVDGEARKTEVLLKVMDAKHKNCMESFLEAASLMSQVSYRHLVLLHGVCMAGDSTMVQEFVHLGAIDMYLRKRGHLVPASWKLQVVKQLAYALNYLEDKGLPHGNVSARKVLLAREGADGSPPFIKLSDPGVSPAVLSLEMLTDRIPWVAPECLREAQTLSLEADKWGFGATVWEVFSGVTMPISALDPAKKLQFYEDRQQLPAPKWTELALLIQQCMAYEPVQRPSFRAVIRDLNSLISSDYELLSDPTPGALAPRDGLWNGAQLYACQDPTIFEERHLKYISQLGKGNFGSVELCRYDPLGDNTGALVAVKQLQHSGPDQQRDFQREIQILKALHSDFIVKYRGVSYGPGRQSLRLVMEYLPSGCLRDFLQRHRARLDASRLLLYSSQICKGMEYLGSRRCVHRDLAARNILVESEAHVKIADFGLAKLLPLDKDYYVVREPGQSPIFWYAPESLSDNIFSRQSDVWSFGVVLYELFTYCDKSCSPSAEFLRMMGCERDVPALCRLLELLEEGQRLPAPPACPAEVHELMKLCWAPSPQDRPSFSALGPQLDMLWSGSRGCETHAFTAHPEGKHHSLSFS

[7] = molecular target: Tyrosine-protein kinase BTK (Homo sapiens, UniProt Q06187); test: Inhibition of BTK (unknown origin) using peptide substrate incubated for 1 hrs in presence of ATP by fluorescence microplate reader
[8] = molecular target: Epidermal growth factor receptor (Homo sapiens, UniProt P00533); test: Inhibition of EGFR (unknown origin) using peptide substrate incubated for 1 hrs in presence of ATP by fluorescence microplate reader
[9] = molecular target: Serine/threonine-protein kinase pim-1 (Homo sapiens, UniProt P11309); test: Inhibition of PIM1 (unknown origin) using peptide substrate incubated for 1 hrs in presence of ATP by fluorescence microplate reader
[10] = molecular target: T4, Serine/threonine-protein kinase 17B (Homo sapiens, UniProt O94768); test: Inhibition of DRAK2 (unknown origin) expressed in Escherichia coli incubated for 2 hrs by ADP-Glo assay
T4 sequence (O94768 whole entry): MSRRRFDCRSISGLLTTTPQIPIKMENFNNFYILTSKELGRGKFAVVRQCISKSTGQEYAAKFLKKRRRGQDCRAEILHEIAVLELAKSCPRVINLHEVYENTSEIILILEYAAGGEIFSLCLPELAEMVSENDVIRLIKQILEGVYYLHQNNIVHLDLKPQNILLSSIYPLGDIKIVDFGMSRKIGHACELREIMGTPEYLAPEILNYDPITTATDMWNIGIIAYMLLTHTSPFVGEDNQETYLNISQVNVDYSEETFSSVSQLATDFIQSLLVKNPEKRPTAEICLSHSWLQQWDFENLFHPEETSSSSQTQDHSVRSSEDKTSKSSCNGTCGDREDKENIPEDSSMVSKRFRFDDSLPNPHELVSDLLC

[11] = molecular target: T5, Serine/threonine-protein kinase Chk1 (Homo sapiens, UniProt O14757)
T5 sequence (O14757 whole entry): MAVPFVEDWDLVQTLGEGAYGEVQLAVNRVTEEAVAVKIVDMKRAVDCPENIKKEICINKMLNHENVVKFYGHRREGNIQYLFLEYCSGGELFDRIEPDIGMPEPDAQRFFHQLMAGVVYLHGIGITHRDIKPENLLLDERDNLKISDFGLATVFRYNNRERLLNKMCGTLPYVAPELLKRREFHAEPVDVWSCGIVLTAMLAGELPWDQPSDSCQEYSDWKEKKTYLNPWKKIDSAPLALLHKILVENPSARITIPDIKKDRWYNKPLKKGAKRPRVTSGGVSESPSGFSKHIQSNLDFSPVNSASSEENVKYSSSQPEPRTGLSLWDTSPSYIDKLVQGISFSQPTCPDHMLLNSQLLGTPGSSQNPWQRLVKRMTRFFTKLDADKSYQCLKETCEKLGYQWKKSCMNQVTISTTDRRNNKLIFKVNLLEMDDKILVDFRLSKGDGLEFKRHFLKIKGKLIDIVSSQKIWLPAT
Description: Inhibition of CHK1 (unknown origin) using peptide substrate incubated for 1 hrs in presence of ATP by fluorescence microplate reader analysis

[12] = molecular target: Mast/stem cell growth factor receptor Kit (Homo sapiens, UniProt P10721)
Description: Inhibition of c-kit (unknown origin) using peptide substrate incubated for 1 hrs in presence of ATP by fluorescence microplate reader analysis

[13] = molecular target: T6, Serine/threonine-protein kinase Chk1 (Homo sapiens) (UniProt O14757); conditions: MV4-11, dose 50-200 nM
T6 sequence (whole entry): T5 sequence (O14757 whole entry)
Description: Inhibition of CHK1 phosphorylation at S296 residue in human MV4-11 cells at 50 to 200 nM by Western blot analysis

[14] = molecular target: T6, Serine/threonine-protein kinase Chk1 (Homo sapiens); conditions: MV4-11, dose 50-200 nM; remark: listed apart in the source
Description: Inhibition of CHK1 in human MV4-11 cells assessed as decrease in c-Myc protein expression level at 50 to 200 nM by Western blot analysis

Chain of Mast/stem cell growth factor receptor Kit (P10721 whole entry): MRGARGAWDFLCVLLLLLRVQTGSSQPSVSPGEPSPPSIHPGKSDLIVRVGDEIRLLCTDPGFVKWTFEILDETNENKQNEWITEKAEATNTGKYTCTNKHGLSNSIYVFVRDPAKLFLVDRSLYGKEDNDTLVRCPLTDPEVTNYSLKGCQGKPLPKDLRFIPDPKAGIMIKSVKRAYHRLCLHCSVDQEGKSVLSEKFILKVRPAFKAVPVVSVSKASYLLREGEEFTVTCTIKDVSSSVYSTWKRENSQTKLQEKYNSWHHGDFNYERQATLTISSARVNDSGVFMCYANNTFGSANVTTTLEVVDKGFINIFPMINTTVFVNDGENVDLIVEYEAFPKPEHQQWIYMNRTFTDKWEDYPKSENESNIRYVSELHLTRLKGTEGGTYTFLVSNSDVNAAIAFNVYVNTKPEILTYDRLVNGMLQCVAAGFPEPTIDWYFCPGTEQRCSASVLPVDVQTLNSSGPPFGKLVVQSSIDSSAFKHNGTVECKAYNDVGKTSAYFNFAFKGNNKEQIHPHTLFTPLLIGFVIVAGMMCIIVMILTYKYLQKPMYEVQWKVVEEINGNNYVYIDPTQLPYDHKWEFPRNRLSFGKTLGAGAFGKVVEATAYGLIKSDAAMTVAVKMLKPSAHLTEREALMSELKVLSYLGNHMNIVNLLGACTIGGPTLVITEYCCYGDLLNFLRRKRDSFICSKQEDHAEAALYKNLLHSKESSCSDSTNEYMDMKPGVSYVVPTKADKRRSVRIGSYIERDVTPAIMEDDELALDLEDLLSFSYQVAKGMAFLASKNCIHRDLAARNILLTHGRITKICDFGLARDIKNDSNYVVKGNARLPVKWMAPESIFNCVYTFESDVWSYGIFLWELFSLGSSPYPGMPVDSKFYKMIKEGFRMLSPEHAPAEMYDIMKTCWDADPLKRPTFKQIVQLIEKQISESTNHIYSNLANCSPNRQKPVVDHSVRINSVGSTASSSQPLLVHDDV
Chain of hERG (KCNH2) (Q12809 whole entry): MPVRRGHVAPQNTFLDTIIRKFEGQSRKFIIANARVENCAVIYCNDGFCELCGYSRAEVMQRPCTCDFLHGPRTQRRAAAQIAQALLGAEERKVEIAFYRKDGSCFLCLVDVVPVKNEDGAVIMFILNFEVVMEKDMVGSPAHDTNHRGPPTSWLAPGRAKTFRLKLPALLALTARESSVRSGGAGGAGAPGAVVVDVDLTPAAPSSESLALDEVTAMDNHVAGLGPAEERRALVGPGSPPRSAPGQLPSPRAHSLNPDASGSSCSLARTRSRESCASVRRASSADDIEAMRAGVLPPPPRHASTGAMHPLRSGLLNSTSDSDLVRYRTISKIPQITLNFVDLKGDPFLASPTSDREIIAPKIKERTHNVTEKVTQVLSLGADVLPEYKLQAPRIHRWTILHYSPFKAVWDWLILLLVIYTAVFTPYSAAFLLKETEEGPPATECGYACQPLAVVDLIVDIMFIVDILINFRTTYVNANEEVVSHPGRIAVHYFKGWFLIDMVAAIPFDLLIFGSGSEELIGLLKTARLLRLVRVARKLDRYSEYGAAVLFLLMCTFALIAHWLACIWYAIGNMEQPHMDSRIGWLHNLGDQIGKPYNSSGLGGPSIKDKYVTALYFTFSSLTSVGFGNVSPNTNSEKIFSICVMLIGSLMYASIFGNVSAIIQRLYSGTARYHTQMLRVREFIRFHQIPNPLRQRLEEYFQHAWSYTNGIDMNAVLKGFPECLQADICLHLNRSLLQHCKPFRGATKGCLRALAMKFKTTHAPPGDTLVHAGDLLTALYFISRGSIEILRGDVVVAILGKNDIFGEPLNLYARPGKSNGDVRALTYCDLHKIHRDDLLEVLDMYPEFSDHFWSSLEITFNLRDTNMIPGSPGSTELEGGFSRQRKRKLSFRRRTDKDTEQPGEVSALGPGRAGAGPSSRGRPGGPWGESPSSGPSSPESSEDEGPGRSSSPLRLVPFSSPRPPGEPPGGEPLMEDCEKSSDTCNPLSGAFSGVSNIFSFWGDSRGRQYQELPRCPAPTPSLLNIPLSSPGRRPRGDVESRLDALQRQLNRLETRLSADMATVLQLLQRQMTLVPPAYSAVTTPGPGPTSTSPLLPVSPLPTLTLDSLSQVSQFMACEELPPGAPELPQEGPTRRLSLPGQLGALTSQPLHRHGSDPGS
Chain of Serine/threonine-protein kinase pim-1 (P11309 whole entry): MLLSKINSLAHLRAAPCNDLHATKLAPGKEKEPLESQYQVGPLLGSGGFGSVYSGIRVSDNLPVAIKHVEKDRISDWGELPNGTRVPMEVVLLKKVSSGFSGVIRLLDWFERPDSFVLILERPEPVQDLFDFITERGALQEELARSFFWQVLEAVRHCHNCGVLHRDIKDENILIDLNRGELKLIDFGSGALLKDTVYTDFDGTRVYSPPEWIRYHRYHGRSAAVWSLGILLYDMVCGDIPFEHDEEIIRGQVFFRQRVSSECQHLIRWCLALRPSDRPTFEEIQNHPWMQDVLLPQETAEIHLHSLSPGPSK
Chain of Tyrosine-protein kinase BTK (Q06187 whole entry): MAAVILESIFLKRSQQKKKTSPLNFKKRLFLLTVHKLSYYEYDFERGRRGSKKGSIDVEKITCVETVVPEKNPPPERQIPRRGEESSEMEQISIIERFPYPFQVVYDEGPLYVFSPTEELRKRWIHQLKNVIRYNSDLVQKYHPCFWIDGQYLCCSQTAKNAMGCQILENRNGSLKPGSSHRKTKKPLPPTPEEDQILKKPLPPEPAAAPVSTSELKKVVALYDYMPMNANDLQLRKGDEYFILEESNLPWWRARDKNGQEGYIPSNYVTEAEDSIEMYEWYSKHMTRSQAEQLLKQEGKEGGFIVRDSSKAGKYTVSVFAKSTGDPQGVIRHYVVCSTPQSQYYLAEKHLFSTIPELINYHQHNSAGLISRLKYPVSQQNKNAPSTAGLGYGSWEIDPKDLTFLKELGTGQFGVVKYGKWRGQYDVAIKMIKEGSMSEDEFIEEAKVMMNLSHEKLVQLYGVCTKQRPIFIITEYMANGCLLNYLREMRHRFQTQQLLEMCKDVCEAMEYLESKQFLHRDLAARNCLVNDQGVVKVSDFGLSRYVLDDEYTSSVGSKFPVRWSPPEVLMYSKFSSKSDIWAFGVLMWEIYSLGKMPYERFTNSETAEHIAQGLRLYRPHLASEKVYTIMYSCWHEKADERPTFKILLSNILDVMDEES
Chain of Epidermal growth factor receptor (P00533 whole entry): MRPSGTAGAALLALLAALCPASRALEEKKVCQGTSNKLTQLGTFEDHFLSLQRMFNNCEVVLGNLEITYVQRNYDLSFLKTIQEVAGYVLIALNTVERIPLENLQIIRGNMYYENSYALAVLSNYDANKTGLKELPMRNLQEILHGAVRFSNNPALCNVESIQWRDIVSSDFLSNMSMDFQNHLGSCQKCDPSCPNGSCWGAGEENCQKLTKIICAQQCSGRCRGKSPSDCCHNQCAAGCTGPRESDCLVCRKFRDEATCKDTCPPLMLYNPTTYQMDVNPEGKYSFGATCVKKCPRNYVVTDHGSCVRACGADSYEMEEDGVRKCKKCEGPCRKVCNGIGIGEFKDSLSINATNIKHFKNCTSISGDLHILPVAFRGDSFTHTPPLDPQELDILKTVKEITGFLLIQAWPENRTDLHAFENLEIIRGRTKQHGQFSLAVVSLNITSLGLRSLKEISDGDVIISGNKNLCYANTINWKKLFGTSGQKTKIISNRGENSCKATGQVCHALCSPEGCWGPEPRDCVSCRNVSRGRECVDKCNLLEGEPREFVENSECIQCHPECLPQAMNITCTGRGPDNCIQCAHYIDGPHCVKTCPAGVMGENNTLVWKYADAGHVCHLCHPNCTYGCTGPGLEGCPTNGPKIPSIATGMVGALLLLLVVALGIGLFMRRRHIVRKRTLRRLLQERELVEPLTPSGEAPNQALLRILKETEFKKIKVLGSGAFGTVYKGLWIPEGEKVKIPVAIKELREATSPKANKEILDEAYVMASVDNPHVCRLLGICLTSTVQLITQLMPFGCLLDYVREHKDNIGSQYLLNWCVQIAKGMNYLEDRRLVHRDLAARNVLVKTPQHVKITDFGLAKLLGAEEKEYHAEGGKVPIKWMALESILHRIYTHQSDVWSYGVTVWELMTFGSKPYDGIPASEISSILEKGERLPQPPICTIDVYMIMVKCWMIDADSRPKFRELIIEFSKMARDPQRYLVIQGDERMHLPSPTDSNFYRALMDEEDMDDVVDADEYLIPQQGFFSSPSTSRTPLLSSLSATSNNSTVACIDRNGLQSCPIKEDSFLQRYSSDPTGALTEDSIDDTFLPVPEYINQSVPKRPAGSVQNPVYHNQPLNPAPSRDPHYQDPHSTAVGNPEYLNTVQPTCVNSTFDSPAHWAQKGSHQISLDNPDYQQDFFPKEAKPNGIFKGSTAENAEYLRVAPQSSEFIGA

Row | SMILES | inhibition at 10 µM [1] [%] | IC50 [11] [nM] | IC50 [12] [µM] | other results
1 | CS(=O)(=O)N1CCc2cc(Nc3ncc(C(F)(F)F)c(NCCCN)n3)ccc2C1 | 36.1 | 25.6 | 10.5 | IC50 [2]: 865 nM; IC50 [3]: 834.85 nM; IC50 [4]: 833 nM; IC50 [5]: 1860 nM; IC50 [6]: > 10 µM; IC50 [7]: > 10 µM; IC50 [8]: > 10 µM; IC50 [9]: > 10 µM; IC50 [10]: > 10 µM; inhibition [13]: Active; inhibition [14]: Active
2 | NCCCNc1nc(Nc2ccc3c(c2)CCC3=O)ncc1C(F)(F)F |  | 144 |  | 
3 | CS(=O)(=O)N1CCc2cc(Nc3ncc(C(F)(F)F)c(NCCCN)n3)ccc21 | 39.5 | 32.5 | 12.3 | 
4 | CS(=O)(=O)N1CCCc2cc(Nc3ncc(C(F)(F)F)c(NCCCN)n3)ccc21 | 64.2 | 28.9 | 9.81 | 
5 | NCCCNc1nc(Nc2ccc3c(c2)CCN(S(=O)(=O)C2CCCCC2)C3)ncc1C(F)(F)F |  | 100 |  | 
6 | CS(=O)(=O)N1Cc2ccc(Nc3ncc(C(F)(F)F)c(NCCCN)n3)cc2C1 | 23.2 | 35.2 | 21.3 | 
7 | CC(=O)c1ccc(Nc2ncc(C(F)(F)F)c(NCCCN)n2)cc1 |  | 89.3 |  | 
8 | NCCCNc1nc(Nc2ccc3c(c2)CCCC3=O)ncc1C(F)(F)F | 76.1 | 38.6 | 10.9 | 
9 | NCCCNc1nc(Nc2ccc3c(c2)CCS3(=O)=O)ncc1C(F)(F)F |  | 104 |  | 
10 | NCCCNc1nc(Nc2ccc3c(c2)CCN(S(=O)(=O)c2ccccc2)C3)ncc1C(F)(F)F |  | 133 |  | 
11 | NCCCNc1nc(Nc2ccc3c(c2)OCO3)ncc1C(F)(F)F |  | 237 |  | 
12 | NCCCNc1nc(Nc2ccc3c(c2)COC3=O)ncc1C(F)(F)F |  | 93.6 |  | 
13 | CS(=O)(=O)N1CCOc2cc(Nc3ncc(C(F)(F)F)c(NCCCN)n3)ccc21 |  | 183 |  | 
14 | NCCCNc1nc(Nc2ccc3c(c2)CCCN3S(=O)(=O)c2ccccc2)ncc1C(F)(F)F |  | 166 |  | 
